Numbers after ± are expanded uncertainties.
Tests used:
[1] = Liquid; for mass density: 96 kPa, Vibrating tube method; for vapor or sublimation pressure: Index of refraction calibration data
[2] = xn = mol fraction of the nth substance listed; details: 96 kPa, Liquid, Vibrating tube method, x2 = 0
[3] = refractive index (Na D-line) (dimensionless); xn = mol fraction of the nth substance listed; details: 298.15 K; 96 kPa; Liquid; Standard Abbe refractometry; x2 = 0

CCOS(=O)(=O)[O-].CCn1cc[n+](C)c1 [1-ethyl-3-methylimidazolium ethyl sulfate]
[1]
Details	mass density [kg/m3]
288.16 K	1243.72 ± 3
293.16 K	1239.95 ± 3
298.14 K	1236.86 ± 3
298.15 K	1236.86 ± 3
303.14 K	1233.58 ± 2.9
308.15 K	1229.9 ± 2.9
313.15 K	1226.73 ± 2.9
318.16 K	1223.17 ± 2.9
323.15 K	1219.99 ± 2.9

CCOS(=O)(=O)[O-].CCn1cc[n+](C)c1 [1-ethyl-3-methylimidazolium ethyl sulfate] + CCC=O
[2]
Details	mass density [kg/m3]
288.16 K	1243.72 ± 3
293.16 K	1239.95 ± 3
298.14 K	1236.86 ± 3
303.14 K	1233.58 ± 2.9
308.15 K	1229.9 ± 2.9
313.15 K	1226.73 ± 2.9

Details	refractive index
[3]	1.4817 ± 0.0008

CCOS(=O)(=O)[O-].CCn1cc[n+](C)c1 [1-ethyl-3-methylimidazolium ethyl sulfate] + CCCCC=O
[2]
Details	mass density [kg/m3]
288.16 K	1243.72 ± 3
293.16 K	1239.95 ± 3
298.14 K	1236.86 ± 3
303.14 K	1233.58 ± 2.9
308.15 K	1229.9 ± 2.9
313.15 K	1226.73 ± 2.9
318.16 K	1223.17 ± 2.9
323.15 K	1219.99 ± 2.9

Details	refractive index
[3]	1.4817 ± 0.0008

CCCCC=O [pentanal]
[1]
Details	mass density [kg/m3]	vapor or sublimation pressure [kPa]
288.15 K	814.15 ± 0.24	–
293.14 K	809.45 ± 0.24	–
298.14 K	804.73 ± 0.24	–
298.15 K	804.73 ± 0.24	–
303.15 K	799.97 ± 0.24	–
308.15 K	795.17 ± 0.24	–
313.14 K	790.33 ± 0.24	–
318.14 K	785.46 ± 0.24	–
323.14 K	780.55 ± 0.24	–
376.2 K	–	101.3 ± 1

CCC=O [propanal]
[1]
Details	mass density [kg/m3]	vapor or sublimation pressure [kPa]
288.14 K	807.26 ± 0.24	–
293.15 K	801.06 ± 0.24	–
298.15 K	794.85 ± 0.24	–
303.15 K	788.72 ± 0.24	–
308.16 K	782.55 ± 0.24	–
313.15 K	776.53 ± 0.24	–
321.2 K	–	101.3

From the NIST ThermoML archive (doi:10.1016/j.jct.2011.01.008)
